Like-named read-outs stand apart in the source and are kept apart here.
Experiments:
in vivo = assay type: in vivo; settings: female, SCID, mouse, in vivo; daily IV
Experimental: (§1) Solutions were kept on ice and administered as a bolus within 1 hour after formulation preparation. The volume of injection was 0.2 mL per mouse.
(§2) Eight-week-old female SCID mice were purchased from Charles River. The Committee of Animal Studies at Sanofi approved the protocol for animal experimentation. This protocol and all laboratory procedures comply with the French Legislation, which implements the European Directives. Animals were received at least one week before the experiment to allow acclimatization. The animals were kept under a natural daylight cycle and given food and water ad libitum.
(§3) When the tumor reached approximately 1000 mg, it was removed from the donor mouse, cut into fragments (2-3 mm diameter), placed in a phosphate buffer saline, and implanted bilaterally with a 12-gauge trocar. Tumor fragments were propagated until stable growth behavior occurred (a stable doubling time), before using in experiments. Distribution was performed using body weight and tumor weight criteria with the “Newlab oncology” software (Newlab).
(§4) When ΔT/ΔC values are negative, the percentage of regression is evaluated. Partial regression (PR) is defined as a decrease ≧50% of tumor volume at treatment initiation. Complete regression (CR) is defined as a decrease in tumor volume below the limit of palpation (T=10 mm^3). At study end, the number of tumor-free survivors (TFS), which correspond to mice without any detectable tumor, was determined. Both drug-related deaths and maximum percent relative mean net body weight loss were also determined. Median times to reach tumor target size were compared using Log-Rank or Kruskal-Wallis multiple comparisons tests. A body weight loss nadir (mean of group)>20% or 10% drug-related deaths were considered to indicate an excessive toxic dosage.
(§5) where T is the median time (in days) required for the treatment group tumors to reach a predetermined size (eg, 1000 mg), and C is the median time tumors to reach the same size (in days) for the vehicle group of each schedule. Tumor-free survivors are excluded from these calculations (cures are tabulated separately). T-C is the tumor growth delay and Td is the tumor doubling time in days. […] LCK-g values can be translated into an activity rating, according to the Southern Research Institute (SRI) criteria: […]

KG1 cells = assay: in vivo; assay type: in vivo; settings: for CR / cures / log cell kill-gross (LCK-g): Compound (A) 20 mg/kg IV days 16-20, alone or combined; for tumor response, oral consolidation: after IV induction
Experimental: as §1, §2, §3, §4, §5

CML-T1 = assay: Human chronic leukaemia CML-T1 implanted in SCID mice; assay type: in vivo; settings: Cytarabine 200 mg/kg IP days 8, 12, 16; COMPOUND (A) 10 mg/kg IP days 8, 9, 11-17, 19; alone or combined
Experimental: Food and water were given ad libitum.
as §5

[1] = system: erythroblastic BFU-E progenitors; assay: Normal myeloid progenitor cell clonogenic assay (BFU-E); assay type: cell-based; settings: Homo sapiens, 336 h, median over normal myeloid progenitor samples, 14 days
Experimental: (§6) For in vitro studies, compound (A) was dissolved at 10 mM in DMSO and diluted in complete RPMI-1640 medium or in phenol red-free complete RPMI-1640 medium in sterile 96-well polystyrene cell culture plates. For in vivo studies, compound (A) was prepared for intravenous (IV) or intraperitoneal (IP) administration by mixing 22% PEG400 with 5% solutol and 73% […]. For oral administration, compound (A), was prepared in a generally regarded as safe (GRAS) formulation composed of 21% labrasol with 5% solutol and 74% HCL 0.001N. Solutions were kept on ice and administered as a bolus within 1 hour after formulation preparation. The volume of injection was 0.2 mL per mouse.
(§7) Fresh CD34^+ human bone marrow cells were washed twice in Iscove modified Dulbecco medium (IMDM) containing 10% FCS and resuspended in H4230 medium supplemented with 10% 5637-conditioned medium for CFU-GM growth, in H4435 medium for CFU-M growth, and in H4535 medium for BFU-E growth. H4230, H4435, and H4535 medium were purchased from Stem Cell Technologies. The cells were then plated in 35-mm Petri dishes and incubated in a humidified CO2 incubator (5% CO2, 37° C.) for 14 days. Colonies (>50 cells) were then scored under an inverted microscope.

[2] = system: leukemia progenitors (CFU-L) of AML patient samples; assay: Myeloid leukemic cell clonogenic assay on AML patient samples (ex vivo); assay type: cell-based, human; settings: for IC50: Homo sapiens
Experimental: Hematological malignant cell lines were obtained from Deutsche Sammlung von Mikroorganismen and Zellkulturen GmbH (Braunschweig) and cultured in complete RPMI-1640 medium containing 10% fetal bovine serum and antibiotics. Primary AML cells were obtained from patients seen at Toulouse Hospital (Toulouse, France) at the time of diagnosis and after written informed consent. All samples were evaluated for karyotypic abnormalities, immunologic phenotype, FLT3-acquired activating mutations (internal tandem duplications and kinase domain mutations), t (Mizuki M. et al., Blood 2000 96: 3907-3914; Fiebig H. H. et al., Eur. J. Cancer 2004, 40: 802-820) and inv (Bonnet D. et al., Nat Med 1997 3: 730-737) mutations, and c-kit receptor-acquired mutations. Samples were stored in the Hemopathies Inserm Midi-Pyrénées (HIMIP) collection. Mononuclear cells were separated through a Ficoll-Hypaque density gradient.
as §6
The assay is as described by Récher and colleagues (Récher C. et al., Blood 2005; 105:2527-2534) with slight modifications. Briefly, cells were washed twice in PBS and suspended at 1×10^5 cell/mL in H4230 medium (Stem Cell Technologies) supplemented with 10% 5637-conditioned medium and appropriate dilutions of COMPOUND (A). Cells were then plated on 35 mm petri dishes and incubated at 37° C. in 5% CO2, fully humidified atmosphere. After 7 days, colonies (more than 20 cells) and clusters (more than 5 cells) were scored using an inverted microscope.

KG1a cells = assay: Tumor implantation study in SCID mice bearing KG1a cells; assay type: in vivo; settings: for ΔT/ΔC: evaluated on day 32; for cures: day 120
Experimental: as §6, §2
All tumor cell lines were obtained from DSMZ GmbH. Initially, cell lines were cultured in RPMI 1640 containing 10% FCS and antibiotics, and implanted subcutaneously in SCID mice (10^7 cells/mouse). When the tumor reached approximately 1000 mg, it was removed from the donor mouse, cut into fragments (2-3 mm diameter), placed in a phosphate buffer saline, and implanted bilaterally with a 12-gauge trocar. Tumor fragments were propagated until stable growth behavior occurred (a stable doubling time), before using in experiments. Distribution was performed using body weight and tumor weight criteria with the “Newlab oncology” software (Newlab).
as §4

[3] = system: granulomonocytic progenitors (CFU-GM); assay: Normal myeloid progenitor cell clonogenic assay (CFU-GM); assay type: cell-based; settings: Homo sapiens, 336 h, median over normal myeloid progenitor samples, 14 days
Experimental: as §6, §7

[4] = Cytarabine 31.5 mg/kg IP days 16-22
[5] = very advanced KG1 tumors (1000 mg), 25 mg/kg IV daily day 22-30

## CC(C)(C)NC(=O)Nc1nc2nc(Nc3ccc4nsnc4c3)ncc2cc1-c1c(Cl)cccc1Cl [Compound (A), N-[2-(2,1,3-benzothiadiazol-5-ylamino)-6-(2,6-dichlorophenyl)pyrido[2,3-d]pyrimidin-7-yl]-N′-(1,1-dimethylethyl)-urea]
In vivo
  MTD: 25 mg/kg
KG1 cells; 10 mg/kg IV
  activity rating: active
KG1 cells; 10 mg/kg/day IV
  animals with CR: one of six
KG1 cells; 10 mg/kg/day IV, day 19 to day 38
  ΔT/ΔC: 17.45%
KG1 cells; 25 mg/kg IV
  activity rating: highly active (ΔT/ΔC<0: highly active)
KG1 cells; 25 mg/kg/day IV (MTD)
  animals with complete regressions (CR): 6 out of 6
  animals with cures: 6 out of 6
KG1 cells; 25 mg/kg/day IV, day 19 to day 38
  DT/DC: < −14.27%
KG1 cells; 25 mg/kg/day IV, day 29, reversible
  body weight loss: 18.2%
KG1 cells; [4]
  CR: 83%
  cures: no
  log cell kill-gross (LCK-g): 2.4
KG1 cells; oral 1x50 mg/kg daily day 31-95
  tumor response, oral consolidation: tumors re-grew slowly
KG1 cells; oral 2x40 mg/kg daily day 31-95
  tumor response, oral consolidation: complete disappearance of tumors
KG1 cells; oral 2x40 mg/kg/day
  animals cured: None
KG1 cells; oral 2x40 mg/kg/day, day 28, rapidly reversible
  maximum body weight loss: 14.4%
KG1 cells; oral once a day 19.8 mg/kg
  efficacy (in words): no efficacy
  ΔT/ΔC: 41.99%
KG1 cells; oral once a day 31.5 mg/kg
  DT/DC: 19.72%
KG1 cells; oral once a day 50 mg/kg
  DT/DC: 7.61%
KG1 cells; oral, two daily dosages of 40 mg/kg/day, day 15 to day 40
  ΔT/ΔC: −3.80%
KG1 cells; [5]
  activity rating, IV induction phase: highly active (ΔT/ΔC<0: highly active)
  tumor response, IV induction phase: strong tumor regressions
CML-T1
  LCK-g: 0.1
[1]
  IC50: 219 nM
[2]; range over AML patient samples, read-out: IC50 values ranging (all tested samples)
  IC50: ≥ 3.8 nM
[2]; resistant, N=4 samples, read-out: IC50 maximum, resistant samples
  IC50: > 1000 nM
[2]; resistant, N=4 samples, read-out: IC50 minimum, resistant samples
  IC50: 888 nM
[2]; sensitive, N=26, read-out: IC50 maximum, sensitive samples
  IC50: 532 nM
[2]; sensitive, N=26, read-out: IC50 median, sensitive samples
  IC50: 172 nM
[2]; sensitive, N=26, read-out: IC50 minimum, sensitive samples
  IC50: 3.8 nM
[2]; classified against activity on normal hematopoietic progenitors
  sensitive samples as share of the tested samples: 86.7%
[2]; high-risk group: patients 4, 11, 14, 19, 21, 23, 25, 27, 28, 29
  AML cell samples displaying resistance in the high-risk cytogenetic group: 3
[2]; patient sample 11
  sensitivity of patient sample 11: highly sensitive
KG1a cells; 10 mg/kg
  activity rating: highly active (ΔT/ΔC<0: highly active)
  animals with complete regression: 10/10
  cures: 80%
KG1a cells; 10 mg/kg daily IV day 5-13 then IP to day 31
  ΔT/ΔC: −4.99%
KG1a cells; 17 mg/kg
  activity rating: highly active (ΔT/ΔC<0: highly active)
  animals with complete regression: 10/10
  cures: 60%
KG1a cells; 17 mg/kg daily IV day 5-13 then IP to day 31
  ΔT/ΔC: −4.70%
KG1a cells; 17 mg/kg daily IV day 5-13 then IP, day 22, reversible
  body weight loss at nadir: 16.2%
[3]
  IC50: 788 nM

## Nc1ccn([C@@H]2O[C@H](CO)[C@@H](O)[C@@H]2O)c(=O)n1 [Cytarabine, cytarabine, reference compound]
KG1 cells; [4]
  CR: no
  cures: no
  log cell kill-gross (LCK-g): 1.6
  PR: no
CML-T1
  LCK-g: 0.9

Source: patent US20150005253A1, “NOVEL COMBINATIONS FOR TREATING ACUTE MYELOID LEUKAEMIA OR CHRONIC MYELOID LEUKAEMIA” (SANOFI, priority 2012, published 2015)
